Data reported in BigSolDB 2.1.

SMILES: O=C(O)c1cc(=O)[nH]c(=O)[nH]1
- solubility (mole fraction) (in DMF, 278.15 K): 0.00242
- solubility (mole fraction) (in DMF, 283.15 K): 0.00305
- solubility (mole fraction) (in DMF, 288.15 K): 0.00382
- solubility (mole fraction) (in DMF, 293.15 K): 0.00473
- solubility (mole fraction) (in DMF, 298.15 K): 0.00578
- solubility (mole fraction) (in DMF, 303.15 K): 0.0071
- solubility (mole fraction) (in DMF, 308.15 K): 0.00861
- solubility (mole fraction) (in DMF, 313.15 K): 0.0108
- solubility (mole fraction) (in DMF, 318.15 K): 0.0132
- solubility (mole fraction) (in DMF, 323.15 K): 0.0157
- solubility (mole fraction) (in DMSO, 293.15 K): 0.0326
- solubility (mole fraction) (in DMSO, 298.15 K): 0.0394
- solubility (mole fraction) (in DMSO, 303.15 K): 0.0472
- solubility (mole fraction) (in DMSO, 308.15 K): 0.0563
- solubility (mole fraction) (in DMSO, 313.15 K): 0.0665
- solubility (mole fraction) (in DMSO, 318.15 K): 0.0781
- solubility (mole fraction) (in DMSO, 323.15 K): 0.0911
- solubility (mole fraction) (in THF, 278.15 K): 7.26e-05
- solubility (mole fraction) (in THF, 283.15 K): 8.12e-05
- solubility (mole fraction) (in THF, 288.15 K): 9.02e-05
- solubility (mole fraction) (in THF, 293.15 K): 0.0001
- solubility (mole fraction) (in THF, 298.15 K): 0.000112
- solubility (mole fraction) (in THF, 303.15 K): 0.000125
- solubility (mole fraction) (in THF, 308.15 K): 0.000138
- solubility (mole fraction) (in THF, 313.15 K): 0.000151
- solubility (mole fraction) (in THF, 318.15 K): 0.000167
- solubility (mole fraction) (in THF, 323.15 K): 0.000185
- solubility (mole fraction) (in acetone, 278.15 K): 9.3e-06
- solubility (mole fraction) (in acetone, 283.15 K): 1.06e-05
- solubility (mole fraction) (in acetone, 288.15 K): 1.22e-05
- solubility (mole fraction) (in acetone, 293.15 K): 1.37e-05
- solubility (mole fraction) (in acetone, 298.15 K): 1.56e-05
- solubility (mole fraction) (in acetone, 303.15 K): 1.76e-05
- solubility (mole fraction) (in acetone, 308.15 K): 1.95e-05
- solubility (mole fraction) (in acetone, 313.15 K): 2.21e-05
- solubility (mole fraction) (in acetone, 318.15 K): 2.49e-05
- solubility (mole fraction) (in acetone, 323.15 K): 2.78e-05
- solubility (mole fraction) (in ethanol, 278.15 K): 1.71e-05
- solubility (mole fraction) (in ethanol, 283.15 K): 1.9e-05
- solubility (mole fraction) (in ethanol, 288.15 K): 2.09e-05
- solubility (mole fraction) (in ethanol, 293.15 K): 2.32e-05
- solubility (mole fraction) (in ethanol, 298.15 K): 2.57e-05
- solubility (mole fraction) (in ethanol, 303.15 K): 2.86e-05
- solubility (mole fraction) (in ethanol, 308.15 K): 3.17e-05
- solubility (mole fraction) (in ethanol, 313.15 K): 3.48e-05
- solubility (mole fraction) (in ethanol, 318.15 K): 3.88e-05
- solubility (mole fraction) (in ethanol, 323.15 K): 4.32e-05
- solubility (mole fraction) (in ethyl acetate, 278.15 K): 1.1e-06
- solubility (mole fraction) (in ethyl acetate, 283.15 K): 1.2e-06
- solubility (mole fraction) (in ethyl acetate, 288.15 K): 1.2e-06
- solubility (mole fraction) (in ethyl acetate, 293.15 K): 1.3e-06
- solubility (mole fraction) (in ethyl acetate, 298.15 K): 1.4e-06
- solubility (mole fraction) (in ethyl acetate, 303.15 K): 1.5e-06
- solubility (mole fraction) (in ethyl acetate, 308.15 K): 1.6e-06
- solubility (mole fraction) (in ethyl acetate, 313.15 K): 1.8e-06
- solubility (mole fraction) (in ethyl acetate, 318.15 K): 1.9e-06
- solubility (mole fraction) (in ethyl acetate, 323.15 K): 2e-06
- solubility (mole fraction) (in isopropanol, 278.15 K): 1e-05
- solubility (mole fraction) (in isopropanol, 283.15 K): 1.32e-05
- solubility (mole fraction) (in isopropanol, 288.15 K): 1.72e-05
- solubility (mole fraction) (in isopropanol, 293.15 K): 2.12e-05
- solubility (mole fraction) (in isopropanol, 298.15 K): 2.67e-05
- solubility (mole fraction) (in isopropanol, 303.15 K): 3.36e-05
- solubility (mole fraction) (in isopropanol, 308.15 K): 4.18e-05
- solubility (mole fraction) (in isopropanol, 313.15 K): 5.2e-05
- solubility (mole fraction) (in isopropanol, 318.15 K): 6.37e-05
- solubility (mole fraction) (in isopropanol, 323.15 K): 7.71e-05
- solubility (mole fraction) (in methanol, 278.15 K): 4.44e-05
- solubility (mole fraction) (in methanol, 283.15 K): 5.24e-05
- solubility (mole fraction) (in methanol, 288.15 K): 6.13e-05
- solubility (mole fraction) (in methanol, 293.15 K): 7.19e-05
- solubility (mole fraction) (in methanol, 298.15 K): 8.42e-05
- solubility (mole fraction) (in methanol, 303.15 K): 9.82e-05
- solubility (mole fraction) (in methanol, 308.15 K): 0.000115
- solubility (mole fraction) (in methanol, 313.15 K): 0.000135
- solubility (mole fraction) (in methanol, 318.15 K): 0.000157
- solubility (mole fraction) (in methanol, 323.15 K): 0.000184
- solubility (mole fraction) (in methyl acetate, 278.15 K): 8.8e-06
- solubility (mole fraction) (in methyl acetate, 283.15 K): 9.4e-06
- solubility (mole fraction) (in methyl acetate, 288.15 K): 1.03e-05
- solubility (mole fraction) (in methyl acetate, 293.15 K): 1.15e-05
- solubility (mole fraction) (in methyl acetate, 298.15 K): 1.21e-05
- solubility (mole fraction) (in methyl acetate, 303.15 K): 1.31e-05
- solubility (mole fraction) (in methyl acetate, 308.15 K): 1.41e-05
- solubility (mole fraction) (in methyl acetate, 313.15 K): 1.53e-05
- solubility (mole fraction) (in methyl acetate, 318.15 K): 1.64e-05
- solubility (mole fraction) (in methyl acetate, 323.15 K): 1.76e-05
- solubility (mole fraction) (in n-butanol, 278.15 K): 1.47e-05
- solubility (mole fraction) (in n-butanol, 283.15 K): 1.72e-05
- solubility (mole fraction) (in n-butanol, 288.15 K): 2.12e-05
- solubility (mole fraction) (in n-butanol, 293.15 K): 2.53e-05
- solubility (mole fraction) (in n-butanol, 298.15 K): 2.97e-05
- solubility (mole fraction) (in n-butanol, 303.15 K): 3.5e-05
- solubility (mole fraction) (in n-butanol, 308.15 K): 4.06e-05
- solubility (mole fraction) (in n-butanol, 313.15 K): 4.88e-05
- solubility (mole fraction) (in n-butanol, 318.15 K): 5.67e-05
- solubility (mole fraction) (in n-butanol, 323.15 K): 6.63e-05
- solubility (mole fraction) (in n-propanol, 278.15 K): 2.24e-05
- solubility (mole fraction) (in n-propanol, 283.15 K): 2.57e-05
- solubility (mole fraction) (in n-propanol, 288.15 K): 3e-05
- solubility (mole fraction) (in n-propanol, 293.15 K): 3.42e-05
- solubility (mole fraction) (in n-propanol, 298.15 K): 3.97e-05
- solubility (mole fraction) (in n-propanol, 303.15 K): 4.61e-05
- solubility (mole fraction) (in n-propanol, 308.15 K): 5.31e-05
- solubility (mole fraction) (in n-propanol, 313.15 K): 6.09e-05
- solubility (mole fraction) (in n-propanol, 318.15 K): 7.17e-05
- solubility (mole fraction) (in n-propanol, 323.15 K): 8.18e-05
- solubility (mole fraction) (in water, 278.15 K): 4.57e-05
- solubility (mole fraction) (in water, 283.15 K): 5.22e-05
- solubility (mole fraction) (in water, 288.15 K): 5.97e-05
- solubility (mole fraction) (in water, 293.15 K): 6.68e-05
- solubility (mole fraction) (in water, 298.15 K): 7.56e-05
- solubility (mole fraction) (in water, 303.15 K): 8.5e-05
- solubility (mole fraction) (in water, 308.15 K): 9.5e-05
- solubility (mole fraction) (in water, 313.15 K): 0.000107
- solubility (mole fraction) (in water, 318.15 K): 0.000121
- solubility (mole fraction) (in water, 323.15 K): 0.000136
